Source: ChEMBL document CHEMBL5360532, “Current scenario of quinolone hybrids with potential antibacterial activity against ESKAPE pathogens” (Eur J Med Chem, 2023)
Values after ≈ are worked out from the molar mass of the structure shown.

Key:
Pseudomonas aeruginosa = assay: Antibacterial activity against imipenem resistant Pseudomonas aeruginosa VIM-2 assessed as bacterial growth inhibition measured after 24 hrs by agar dilution assay; assay type: functional
Enterococcus faecalis [1] = assay: Antibacterial activity against vancomycin resistant Enterococcus faecalis assessed as bacterial growth inhibition measured after 24 hrs by agar dilution assay; assay type: functional
Enterobacter cloacae = assay: Antibacterial activity against fosfomycin resistant Enterobacter cloacae assessed as bacterial growth inhibition measured after 24 hrs by agar dilution assay; assay type: functional
Enterococcus faecalis [2] = assay: Antibacterial activity against Enterococcus faecalis ATCC 29212 assessed as bacterial growth inhibition measured after 24 hrs by agar dilution assay; assay type: functional
Escherichia coli [3] = assay: Antibacterial activity against ESBL-producing Escherichia coli assessed as bacterial growth inhibition measured after 24 hrs by agar dilution assay; assay type: functional
Serratia marcescens = assay: Antibacterial activity against Serratia marcescens assessed as bacterial growth inhibition measured after 24 hrs by agar dilution assay; assay type: functional
Citrobacter = assay: Antibacterial activity against Citrobacter assessed as bacterial growth inhibition measured after 24 hrs by agar dilution assay; assay type: functional
Salmonella typhimurium = assay: Antibacterial activity against Salmonella typhi assessed as bacterial growth inhibition measured after 24 hrs by agar dilution assay; assay type: functional, Salmonella enterica subsp. enterica serovar […]; details: Salmonella enterica
Staphylococcus aureus [4] = assay: Antibacterial activity against Staphylococcus aureus ATCC 25923 assessed as bacterial growth inhibition measured after 16 hrs by broth microdilution assay; assay type: functional
Staphylococcus aureus [5] = assay: Potency index, ratio of ciprofloxacin MIC to test compound MIC for antimicrobial activity against Staphylococcus aureus ATCC 25923 assessed as bacterial growth inhibition measured after 24 hrs by agar dilution assay; assay type: functional
Staphylococcus aureus [6] = assay: Antibacterial activity against Staphylococcus aureus assessed as bacterial growth inhibition by agar cup diffusion method; assay type: functional
Staphylococcus aureus [7] = assay: Antibacterial activity against Staphylococcus aureus AUMC B-73 assessed as bacterial growth inhibition by agar cup diffusion method; assay type: functional
Escherichia coli [8] = assay: Antibacterial activity against Escherichia coli CFT 073 assessed as bacterial growth inhibition measured after 20 hrs by microdilution assay; assay type: functional
Escherichia coli [9] = assay: Antibacterial activity against Escherichia coli UTI 189 assessed as bacterial growth inhibition measured after 20 hrs by microdilution assay; assay type: functional
Staphylococcus aureus [10] = assay: Antibacterial activity against Staphylococcus aureus ATCC 29213 assessed as bacterial growth inhibition by broth microdilution assay; assay type: functional
Escherichia coli [11] = assay: Antibacterial activity against Escherichia coli ATCC 25922 assessed as bacterial growth inhibition by broth microdilution assay; assay type: functional

CCOP(=O)(OCC)C(Nc1ncc(-c2cc3ccccc3oc2=O)s1)c1cc2cccc(C)c2[nH]c1=O (stereo unspecified)
MIC (Pseudomonas aeruginosa): 0.25 µg/mL (≈ 0.453 µM) | MIC (Enterococcus faecalis [1]): 0.25 µg/mL (≈ 0.453 µM) | MIC (Enterobacter cloacae): 0.25 µg/mL (≈ 0.453 µM) | MIC (Enterococcus faecalis [2]): 0.25 µg/mL (≈ 0.453 µM) | MIC (Escherichia coli [3]): 0.25 µg/mL (≈ 0.453 µM) | MIC (Serratia marcescens): 0.25 µg/mL (≈ 0.453 µM) | MIC (Citrobacter): 0.25 µg/mL (≈ 0.453 µM) | MIC (Salmonella typhimurium): 0.25 µg/mL (≈ 0.453 µM)

COc1cccc2ccc(C(=O)N3CCN(c4cc5c(cc4F)c(=O)c(C(=O)O)cn5C4CC4)CC3)nc12
MIC (Staphylococcus aureus [4]): 0.2 µg/mL (≈ 0.387 µM) | Ratio (Staphylococcus aureus [5]): 2

C/C(=N\O)c1ccc(NC(=O)C(C)N2CCN(c3cc4c(cc3F)c(=O)c(C(=O)O)cn4C3CC3)CC2)cc1 (stereo unspecified)
MIC (Staphylococcus aureus [6]): 0.38 µg/mL (≈ 0.71 µM) | MIC (Staphylococcus aureus [7]): 0.2 µg/mL (≈ 0.373 µM)

O=C(NCCCCCC(=O)N1CCN(c2cc3c(cc2F)c(=O)c(C(=O)O)cn3C2CC2)CC1)c1cc(O)c(O)c(C(=O)N[C@H]2COC(=O)[C@@H](NC(=O)c3cccc(O)c3O)COC(=O)[C@@H](NC(=O)c3cccc(O)c3O)COC2=O)c1
MIC (Escherichia coli [8]): 0.1 µg/mL (≈ 0.0877 µM) | MIC (Escherichia coli [9]): 0.1 µg/mL (≈ 0.0877 µM)

O=C(O)c1cn(C2CC2)c2cc(N3CCN(Cc4nc5ccccc5c(=O)[nH]4)CC3)c(F)cc2c1=O
MIC (Staphylococcus aureus [10]): 0.031 µg/mL (≈ 0.0633 µM) | MIC (Escherichia coli [11]): 0.25 µg/mL (≈ 0.511 µM)
